Measured values reported in patent US20250321223A1, “ENGINEERING CHEMICALLY INDUCIBLE SPLIT PROTEIN ACTUATORS (CISPA)” (KEMIJSKI INSTITUT, priority 2021, published 2025).

What was measured:
[1] = tested on: split ligand binding domain of glucocorticoid receptor (GR2); assay: CISPA sensor, split LBD of GR2 fused to split firefly luciferase, in HEK293T cells; assay type: cell-based, human; details: increasing ligand concentration, compared to cells not stimulated, FIG. 2B
Source text: (§1) The fusion constructs were simultaneously expressed in the HEK293T cell line. […] Following this dimerization, the split reporter fragments (nLuc and cLuc) are brought into the proximity, leading to their reconstitution and measurable output signal (emitted light). The plasmids encoding for the CISPA sensors based on split LBDs were transiently transfected into the HEK293T cell line. A constitutively expressed Renilla luciferase (phRL-TK http://www.promega.com/vectors/prltk.txf) was used as control of transfection efficiency.
(§2) Methods and techniques for cell line cultivation are well-known to experts in the field and are explained here only indicatively, with the intention of clarifying the example. Cell cultures of HEK293T cells were grown at 37° C. and 5% CO2. For cultivation, DMEM medium with 10% FBS, containing all the necessary nutrients and growth factors was used. When the cell population reached a sufficient density, the cells were transferred to a new flask and/or diluted. For use in experiments, the number of cells was determined by the Countess automated cell counter (Invitrogen). A 96-well microtiter plate, suitable for growing cell cultures, was inoculated with 2*10^4 cells per well 24 hours prior to transfection.

[2] = tested on: split dihydrofolate reductase (DHFR); assay: CISPA sensor, split DHFR fused to split firefly luciferase, in HEK293T cells; assay type: cell-based, human; details: increasing ligand concentration, compared to cells not stimulated, FIG. 3B
Experimental: as §2
A constitutively expressed Renilla luciferase (phRL-TK http://www.promega.com/vectors/prltk.txf) was used as control of transfection efficiency.

[3] = target: split ligand binding domain of estrogen receptor beta (ERβ) (Homo sapiens, UniProt Q92731); details: HEK293T cells, increasing ligand concentration, compared to cells not stimulated; FIG. 2C
Sequence of split ligand binding domain of estrogen receptor beta (ERβ) (Q92731 with tags, fused parts or gaps): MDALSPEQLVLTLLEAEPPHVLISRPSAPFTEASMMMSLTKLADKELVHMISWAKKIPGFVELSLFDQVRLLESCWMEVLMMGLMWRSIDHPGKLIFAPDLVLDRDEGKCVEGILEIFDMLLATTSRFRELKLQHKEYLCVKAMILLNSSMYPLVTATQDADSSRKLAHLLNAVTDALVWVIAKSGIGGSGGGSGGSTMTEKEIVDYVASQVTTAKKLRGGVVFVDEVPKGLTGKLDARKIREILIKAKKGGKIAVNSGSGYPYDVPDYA
Sequence of split ligand binding domain of estrogen receptor beta (ERβ) (Q92731 with tags, fused parts or gaps): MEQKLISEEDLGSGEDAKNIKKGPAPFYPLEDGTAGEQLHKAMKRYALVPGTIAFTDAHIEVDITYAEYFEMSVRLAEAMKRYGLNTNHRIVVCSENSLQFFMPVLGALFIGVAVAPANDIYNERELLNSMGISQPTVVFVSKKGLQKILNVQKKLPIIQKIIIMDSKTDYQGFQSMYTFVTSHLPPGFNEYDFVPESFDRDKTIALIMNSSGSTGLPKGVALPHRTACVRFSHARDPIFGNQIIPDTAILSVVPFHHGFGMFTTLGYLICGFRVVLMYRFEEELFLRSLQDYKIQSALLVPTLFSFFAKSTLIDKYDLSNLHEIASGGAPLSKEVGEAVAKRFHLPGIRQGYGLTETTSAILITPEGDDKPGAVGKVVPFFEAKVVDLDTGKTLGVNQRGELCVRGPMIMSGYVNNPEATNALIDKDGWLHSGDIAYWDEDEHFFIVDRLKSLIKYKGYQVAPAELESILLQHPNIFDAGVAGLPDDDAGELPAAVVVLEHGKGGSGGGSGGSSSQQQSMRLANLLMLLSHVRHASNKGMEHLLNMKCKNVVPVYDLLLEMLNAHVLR
Source text: as §1, §2

Row | Compound | firefly luciferase activity (dimerization of split DHFR CISPA sensor) [2] | other results
1 | C[C@]12CCC(=O)C=C1CC[C@@H]1[C@@H]2[C@@H](O)C[C@@]2(C)[C@H]1CC[C@]2(O)C(=O)CO [cortisol] |  | firefly luciferase activity (dimerization of split GR2 CISPA sensor) [1]: an increase in the firefly luciferase activity is observed
2 | CN(Cc1cnc2nc(N)nc(N)c2n1)c1ccc(C(=O)N[C@@H](CCC(=O)O)C(=O)O)cc1 [methotrexate] | an increase in firefly luciferase activity is observed | 
3 | 4-hydroxytamoxifen |  | firefly luciferase activity (dimerization of split ERβ CISPA sensor) [3]: concentration-dependent manner
4 | C#CCC(Cc1cnc2nc(N)nc(N)c2n1)c1ccc(C(=O)N[C@@H](CCC(=O)O)C(=O)O)cc1 (stereo partly shown) [pralatrexate] | an increase in firefly luciferase activity is observed | 
